Results taken from patent publication US8372840B2, “Potassium channel blockers” (Xention Limited, priority 2008, dated 2013).

biological target: hKv1.5 (Homo sapiens, UniProt P22460); assay: Kv1.5 Autopatch Electrophysiology (whole cell patch-clamp); assay type: cell-based; conditions: compound 1 μM, step to 0 mV for 1000 ms, total charge, room temperature (22-24° C.)
Description: The external bathing solution contained (in mM): 150 NaCl, 10 KCl, […], 3 MgCl2, 1 CaCl2, 10 HEPES, pH 7.4. Patch pipettes were filled with an electrode solution of composition (in mM): 160 KCl, 0.5 MgCl2, 10 HEPES, 1 EGTA, pH 7.4 with KOH.
Compounds were dissolved in DMSO (100%) and made up in the external bather at a concentration of 1 μM. All experiments were conducted at room temperature (22-24° C.).
A cell suspension (10 ml), with a density of 100,000 cells/ml, was aliquoted into a 15 ml centrifuge tube and transferred to an incubator (37° C., 5% CO2) for approximately one hour before use. Following 60 min incubation, a tube was taken and centrifuged at 1000 rpm for 4 mins at room temperature. 9.5 ml supernatant was thence discarded, leaving a cell pellet at the bottom of the tube. The pellet was then resuspended using 100 μl of cold (4° C.), filtered (0.22 μm), 0.2% BSA/bather solution (0.02 g BSA/10 ml bather). The bottom of the tube was manually agitated gently until the solution became cloudy with cells. The 100 μl cell resuspension solution was then stored on the bench at 4° C. (using a Peltier-based temperature control device) until used.
A length of capillary glass (1B150E-4, WPI) was dipped into the cell suspension solution, such that ˜3 cm column of fluid was taken up by capillary action. A Ag/AgCl wire was dropped into the non-dipped end of the capillary also. The outside of the solution-filled end of the capillary was then dried and the capillary was loaded into the AutoPatch™
(§1) Borosilicate glass patch pipettes (from 1.5 mm OD, thin-walled filamented, GC150-TF capillary glass, Harvard) were pulled using a DMZ pipette puller (Zeitz Instruments), and were back-filled using the internal pipette solution, being careful that no bubbles remain at the tip or in the body of the pipette. Patch pipettes typically had resistances of 2.3-3.5 MΩ. Once filled, the pipette tip and a proportion of the shaft (˜15 mm) were dipped into Sigmacote (Sigma). The recording pipette was then loaded into the AutoPatch™. Automated patch-clamping was initiated by the operator, but thereafter AutoPatch.exe continued the experiment providing that pre-set conditions and criteria were satisfied.
Whole cell patch-clamp recordings were made using the AutoPatch™ rig, which incorporated an EPC9 amplifier (HEKA, Germany) under control of Pulse software (v8.54, HEKA, Germany), a motion controller with 2 translators (Newport, UK), valve controller (VF1) and a c-level suction device all at room temperature (22-24° C.). This equipment was completely under the control of AutoPatch.exe and operator intervention was only made when there was a requirement to refill the drug reservoirs or to prevent the loss of a cell due to a technical error. Cells with an Rseries greater than 18 MΩ were discounted from the experiment.
Qualification stages prior to perfusion and drug application ensured that the observed current met the criteria for the experiment. Only those cells with an IK>500 pA were used for experiments. Cells were continuously perfused with external solution at a flow rate of 1.8-2 ml/minute. […] Online analysis of the hKv1.5 current during the application of compounds was performed by the AutoPatch™ software. Voltage-step protocols and analysis of data was performed as described for conventional electrophysiology.
Electrophysiology voltage-step protocols and analysis of data was performed as follows. Data was sampled at 5 kHz, and filtered with a −3 dB bandwidth of 2.5 kHz. Cells were held at a voltage of −80 mV. Currents were evoked to a voltage step for 1000 ms in duration at 0 mV every 5 s. Currents were analysed using Pulsefit software (v8.54, HEKA, Germany), with the total charge measured during the whole of the voltage step. All other plots were produced using Igor Pro (WaveMetrics).

Sequence of hKv1.5 (P22460 whole entry): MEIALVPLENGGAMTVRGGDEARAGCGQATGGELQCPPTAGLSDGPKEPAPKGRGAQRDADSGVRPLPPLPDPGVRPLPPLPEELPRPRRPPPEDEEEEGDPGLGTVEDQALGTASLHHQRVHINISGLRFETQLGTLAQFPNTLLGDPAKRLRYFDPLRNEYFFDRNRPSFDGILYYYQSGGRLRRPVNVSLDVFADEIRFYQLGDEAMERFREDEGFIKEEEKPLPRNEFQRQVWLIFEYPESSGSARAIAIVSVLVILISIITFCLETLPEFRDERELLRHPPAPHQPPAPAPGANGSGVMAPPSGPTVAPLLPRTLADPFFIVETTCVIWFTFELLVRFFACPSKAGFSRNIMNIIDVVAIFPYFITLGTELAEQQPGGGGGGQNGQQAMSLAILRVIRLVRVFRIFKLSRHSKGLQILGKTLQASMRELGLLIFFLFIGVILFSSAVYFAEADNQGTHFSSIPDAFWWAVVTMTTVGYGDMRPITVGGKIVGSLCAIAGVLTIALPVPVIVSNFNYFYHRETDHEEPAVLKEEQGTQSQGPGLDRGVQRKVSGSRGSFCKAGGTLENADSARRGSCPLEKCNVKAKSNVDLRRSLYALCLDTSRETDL

| Molecule | hKv1.5 % inh. |
| --- | --- |
| 2-Methyl-2H-pyrazole-3-sulfonic acid (4-chloro-benzyl)-[3-(2-oxo-pyrrolidin-1-yl)-phenyl]-amide [Example 26] | 43% |
| 1-Methyl-1H-pyrazole-4-sulfonic acid benzyl-[3-(2-oxo-pyrrolidin-1-yl)-phenyl]-amide [Example 24] | 41% |
| Pyridine-3-sulfonic acid (4-chloro-benzyl)-(3-morpholin-4-yl-phenyl)-amide [Example 35] | 84% |
| N-Benzyl-3-cyano-N-[3-(2-oxo-pyrrolidin-1-yl)-phenyl]-benzenesulfonamide [Example 22] | 82% |
| 3-Oxo-3,4-dihydro-2H-benzo[1,4]oxazine-6-sulfonic acid (4-chloro-benzyl)-[3-(2-oxo-pyrrolidin-1-yl)-phenyl]-amide [Example 29] | 72% |
| N-(4-Chloro-benzyl)-3-cyano-N-(3-morpholin-4-yl-phenyl)-benzenesulfonamide [Example 30] | 97% |

same assay, conditions: compound 1 μM, step to 0 mV for 1000 ms, total charge, room temperature (22-24° C.), read-out: hKv1.5 % inh.

| Molecule | inhibition at 1 µM |
| --- | --- |
| Cc1nc(S(=O)(=O)N(Cc2ccc(Cl)cc2)c2cccc(N3CCCC3=O)c2)cn1C [Example 25, 1,2-Dimethyl-1H-imidazole-4-sulfonic acid (4-chloro-benzyl)-[3-(2-oxo-pyrrolidin-1-yl)-phenyl]-amide] | 39% |
| CN1CCOc2cc(S(=O)(=O)N(Cc3ccccc3)c3cccc(N4CCOCC4)c3)ccc21 [Example 21, 4-Methyl-3,4-dihydro-2H-benzo[1,4]oxazine-7-sulfonic acid benzyl-(3-morpholin-4-yl-phenyl)-amide] | 72% |
| Cn1cc(S(=O)(=O)N(Cc2ccc(Cl)cc2)c2cccc(N3CCOCC3)c2)cn1 [Example 33, 1-Methyl-1H-pyrazole-4-sulfonic acid (4-chloro-benzyl)-(3-morpholin-4-yl-phenyl)-amide] | 58% |
| N#Cc1cccc(S(=O)(=O)N(Cc2ccccc2)c2cccc(N3CCOCC3)c2)c1 [Example 20, N-Benzyl-3-cyano-N-(3-morpholin-4-yl-phenyl)-benzenesulfonamide] | 90% |
| Cn1nccc1S(=O)(=O)N(Cc1ccc(Cl)cc1)c1cccc(N2CCOCC2)c1 [Example 31, 2-Methyl-2H-pyrazole-3-sulfonic acid (4-chloro-benzyl)-(3-morpholin-4-yl-phenyl)-amide] | 47% |
| O=C1COc2ccc(S(=O)(=O)N(Cc3ccccc3)c3cccc(N4CCCC4=O)c3)cc2N1 [Example 17, 3-Oxo-3,4-dihydro-2H-benzo[1,4]oxazine-6-sulfonic acid benzyl-[3-(2-oxo-pyrrolidin-1-yl)-phenyl]-amide] | 45% |
| O=C1COc2ccc(S(=O)(=O)N(Cc3ccc(Cl)cc3)c3cccc(N4CCOCC4)c3)cc2N1 [Example 34, 3-Oxo-3,4-dihydro-2H-benzo[1,4]oxazine-6-sulfonic acid (4-chloro-benzyl)-(3-morpholin-4-yl-phenyl)-amide] | 68% |
| Cn1cc(S(=O)(=O)N(Cc2ccc(Cl)cc2)c2cccc(N3CCCC3=O)c2)cn1 [Example 28, 1-Methyl-1H-pyrazole-4-sulfonic acid (4-chloro-benzyl)-[3-(2-oxo-pyrrolidin-1-yl)-phenyl]-amide] | 49% |
| CN1CCOc2cc(S(=O)(=O)N(Cc3ccc(Cl)cc3)c3cccc(N4CCOCC4)c3)ccc21 [Example 32, 4-Methyl-3,4-dihydro-2H-benzo[1,4]oxazine-7-sulfonic acid (4-chloro-benzyl)-(3-morpholin-4-yl-phenyl)-amide] | 64% |
| CN1CCOc2cc(S(=O)(=O)N(Cc3ccc(Cl)cc3)c3cccc(N4CCCC4=O)c3)ccc21 [Example 27, 4-Methyl-3,4-dihydro-2H-benzo[1,4]oxazine-7-sulfonic acid (4-chloro-benzyl)-[3-(2-oxo-pyrrolidin-1-yl)-phenyl]-amide] | 84% |

biological target: T1, human Kv1.3 (Homo sapiens, UniProt P22001); assay: Kv1.3 Autopatch Electrophysiology (whole cell patch-clamp, stably transfected CHO cells); assay type: cell-based; conditions: CHO, compound 1 μM, step to +30 mV for 500 ms, inhibition of total charge relative to control, room temperature, read-out: hKv1.3 % inh.
T1 construct: expressed in transfected cells; host or cells: stably transfected cells grown in medium for CHO cells
T1 sequence (P22001 whole entry): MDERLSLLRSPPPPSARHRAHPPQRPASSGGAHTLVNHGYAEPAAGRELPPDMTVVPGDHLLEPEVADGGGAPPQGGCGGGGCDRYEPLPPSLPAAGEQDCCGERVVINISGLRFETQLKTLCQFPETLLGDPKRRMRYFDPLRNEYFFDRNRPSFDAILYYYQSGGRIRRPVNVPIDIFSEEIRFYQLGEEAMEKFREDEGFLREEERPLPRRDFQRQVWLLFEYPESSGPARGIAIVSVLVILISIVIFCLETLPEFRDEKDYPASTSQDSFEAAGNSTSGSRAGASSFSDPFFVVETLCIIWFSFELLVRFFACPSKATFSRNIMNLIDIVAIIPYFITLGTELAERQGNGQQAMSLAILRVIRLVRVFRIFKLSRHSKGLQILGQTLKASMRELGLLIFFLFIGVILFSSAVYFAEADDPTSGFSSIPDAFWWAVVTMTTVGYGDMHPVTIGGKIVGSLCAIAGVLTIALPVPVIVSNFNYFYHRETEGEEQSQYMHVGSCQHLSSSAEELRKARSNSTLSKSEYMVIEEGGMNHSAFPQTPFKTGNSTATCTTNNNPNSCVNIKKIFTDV
Description: Cells stably transfected with cDNA for human Kv1.3 (in pcDNA3.1) were grown in Ex-cell 302 serum-free medium for CHO cells, supplemented with 10 μl/ml [100×] glutamine, 500 μg/ml G418 ([…]), and 1% HT supplement (50×, hypoxanthine and thymidine). Compounds were tested on these cells using the AutoPatch technology in whole cell mode.
The external bathing solution contained (in mM): 150 NaCl, 10 KCl, 1 MgCl2, 3 CaCl2, 10 HEPES, pH 7.4 with NaOH. Patch pipettes were filled with an electrode solution of composition (in mM): 100 K-Gluconate, 20 KCl, 1 MgCl2, 1 CaCl2, 10 HEPES, 11 EGTA, 5 ATP-Na2, 2 Glutathione pH 7.2 with KOH.
Compounds were dissolved in DMSO (100%) and made up in the external bather at a concentration of 1 μM immediately prior to use. All experiments were conducted at room temperature.
A cell suspension (10 ml), with a density of 6×10^6 cells, was aliquoted into a 15 ml centrifuge tube and stored at 4° C. before use. Prior to use a tube was taken and centrifuged at 1000 rpm for 4 mins at room temperature. The supernatant was then discarded, leaving a cell pellet at the bottom of the tube. The pellet was then resuspended using 1 ml of cold (4° C.), filtered (0.22 μm), 0.05% BSA/bather solution (0.05 g BSA/100 ml bather). The bottom of the tube was manually agitated followed by gentle tituration. The cell suspension was then placed in the AutoPatch™ temperature controlled cell-hotel at 14° C. and regularly titurated.
as §1, with “A length of Teflon capillary tubing was dipped into the cell suspension solution, and a column of fluid was taken up by negative pressure. The column of fluid was in electrically connectivity with a Ag/AgCl reference electrode. Borosilicate” for “Borosilicate”, “remained” for “remain”, “2.5-3.5” for “2.3-3.5”, “pipettes were placed in a multiwell array and mounted on” for “pipette was then loaded into”, “AutoPatch™ machine.” for “AutoPatch™.”, “patch-clamping and drug-application” for “patch-clamping”
Whole cell patch-clamp recordings were made using the AutoPatch™ rig, which incorporated an EPC9 or EPC10 amplifier (HEKA, Germany) under control of Pulse software (v8.54 or v8.76, HEKA, Germany), a cell applicator, automated drug application system (DAS), valve controller (VF1) and a suction device all at room temperature. This equipment was completely under the control of AutoPatch.exe and operator intervention was only made when there was a requirement to refill the bather reservoirs or to prevent the loss of a cell due to a technical error.
Qualification stages prior to perfusion and drug application ensured that the observed current met the criteria for the experiment. Cells were continuously perfused with external solution at a flow rate of ˜2 ml/minute.
Electrophysiology voltage-step protocols and analysis of data was performed as follows. Data were sampled at 5 kHz, and filtered with a −3 dB bandwidth of 2.5 kHz. Cells were held at a voltage of −80 mV. Currents were evoked by a voltage step to +30 mV for 500 ms in duration applied every 15 s. Online analysis of the hKv1.3 current during the application of compounds was performed by the Pulse (v8.54 or v8.76, HEKA, Germany), Excel (Microsoft, USA) and AutoPatch™ software, with the total charge measured during the whole of voltage step Inhibition of charge movement in the presence of drug was calculated relative to control.

| Molecule | inhibition at 1 µM |
| --- | --- |
| Cn1ccc(S(=O)(=O)N(Cc2ccccc2)c2cccc(N3CCNC3=O)c2)n1 [Example 43, 1-Methyl-1H-pyrazole-3-sulfonic acid benzyl-[3-(2-oxo-imidazolidin-1-yl)-phenyl]-amide] | 72% |

same assay, conditions: compound 1 μM, step to +30 mV for 500 ms, inhibition of total charge relative to control, room temperature

| Molecule | hKv1.3 % inh. |
| --- | --- |
| 1-Methyl-1H-pyrazole-3-sulfonic acid (4-chloro-benzyl)-[4-fluoro-3-(2-oxo-pyrrolidin-1-yl)-phenyl]-amide [Example 37] | 53% |
| 1-Methyl-1H-pyrazole-3-sulfonic acid benzyl-[3-(2-oxo-pyrrolidin-1-yl)-phenyl]-amide [Example 39] | 74% |
| 1-Methyl-1H-imidazole-4-sulfonic acid benzyl-[3-(4-phenyl-piperazin-1-yl)-phenyl]-amide [Example 13] | 41% |
